From patent US10829438B2, “Neprilysin inhibitors” (THERAVANCE BIOPHARMA R&D IP, LLC, priority 2012, dated 2020)

Molecular target: human NEP (Homo sapiens (Human), UniProt P08473)
Test: In vitro enzyme inhibition assay at human NEP (fluorogenic peptide substrate)
Type: biochemical
Conditions: not given
Protocol: In Vitro Assays for the Quantitation of Inhibitor Potencies (IC50) at Human and Rat NEP, and Human ACE
The inhibitory activities of compounds at human and rat neprilysin (EC 3.4.24.11; NEP) and human angiotensin converting enzyme (ACE) were determined using in vitro assays as described below.
Recombinant human NEP and recombinant human ACE were obtained commercially (R&D Systems, Minneapolis, Minn., catalog numbers 1182-ZN and 929-ZN, respectively). The fluorogenic peptide substrate Mca-D-Arg-Arg-Leu-Dap-(Dnp)-OH (Medeiros et al. (1997) Braz. J. Med. Biol. Res. 30:1157-62; Anaspec, San Jose, Calif.) and Abz-Phe-Arg-Lys(Dnp)-Pro-OH (Araujo et al. (2000) Biochemistry 39:8519-8525; Bachem, Torrance, Calif.) were used in the NEP and ACE assays respectively.
The assays were performed in 384-well white opaque plates at 37° C. using the fluorogenic peptide substrates at a concentration of 10 μM in Assay Buffer (NEP: 50 mM HEPES, pH 7.5, 100 mM NaCl, 0.01% polyethylene glycol sorbitan monolaurate (Tween-20), 10 μM ZnSO4; ACE: 50 mM HEPES, pH 7.5, 100 mM NaCl, 0.01% Tween-20, 1 μM ZnSO4).
Test compounds were assayed over the range of concentrations from […] to 20 μM. Test compounds were added to the enzymes and incubated for 30 minute at 37° C. prior to initiating the reaction by the addition of substrate. Reactions were terminated after 20 minutes of incubation at 37° C. by the addition of glacial acetic acid to a final concentration of 3.6% (v/v).
Plates were read on a fluorometer with excitation and emission wavelengths set to 320 nm and 405 nm, respectively. Inhibition constants were obtained by nonlinear regression of the data using the equation (GraphPad Software, Inc., San Diego, Calif.): v=v0/[1+(I/K′)] where v is the reaction rate, v0 is the uninhibited reaction rate, I is the inhibitor concentration and K′ is the apparent inhibition constant.

Sequence of human NEP (P08473 52-750): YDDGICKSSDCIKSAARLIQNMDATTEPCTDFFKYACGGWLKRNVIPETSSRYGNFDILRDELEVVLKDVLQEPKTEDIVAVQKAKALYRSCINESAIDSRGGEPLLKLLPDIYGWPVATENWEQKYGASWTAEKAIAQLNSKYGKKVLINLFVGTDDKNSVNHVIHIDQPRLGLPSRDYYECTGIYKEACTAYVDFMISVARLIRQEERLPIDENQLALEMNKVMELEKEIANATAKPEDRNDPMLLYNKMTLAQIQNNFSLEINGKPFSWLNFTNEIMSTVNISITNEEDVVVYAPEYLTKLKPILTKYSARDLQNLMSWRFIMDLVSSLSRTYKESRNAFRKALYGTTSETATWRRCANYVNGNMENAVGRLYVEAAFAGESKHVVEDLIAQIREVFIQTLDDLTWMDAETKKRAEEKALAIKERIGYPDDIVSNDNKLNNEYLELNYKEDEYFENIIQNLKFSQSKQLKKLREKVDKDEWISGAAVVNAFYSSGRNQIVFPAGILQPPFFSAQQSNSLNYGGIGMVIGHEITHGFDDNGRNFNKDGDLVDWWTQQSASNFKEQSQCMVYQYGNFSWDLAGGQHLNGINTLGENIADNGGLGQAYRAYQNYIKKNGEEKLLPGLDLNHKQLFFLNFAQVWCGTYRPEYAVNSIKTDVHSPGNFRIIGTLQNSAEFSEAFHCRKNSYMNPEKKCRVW

| Compound | Ki |
| --- | --- |
| O=C(N[C@H](Cc1ccc(-c2cccc(Cl)c2)cc1)C[C@@H](O)C(=O)O)c1ccc2nnn(OCc3ccccc3)c2c1 [Example 1I, (2R,4R)-4-[(3-Benzyloxy-3H-benzotriazole-5-carbonyl)amino]-5-(3′-chlorobiphenyl-4-yl)-2-hydroxypentanoic Acid] | 12.6 to 100 nM |

Same assay, conditions: recombinant human NEP; 30 minute pre-incubation at 37° C.; fluorogenic substrate 10 μM

| Compound | pKi value at human NEP |
| --- | --- |
| CC(=O)OCOn1nnc2ccc(C(=O)N[C@H](Cc3ccc(-c4cccc(Cl)c4)cc3)C[C@@H](O)C(=O)O)cc21 [Example 1G, (2R,4R)-4-[(3-Acetoxymethoxy-3H-benzotriazole-5-carbonyl)amino]-5-(3′-chlorobiphenyl-4-yl)-2-hydroxypentanoic Acid] | ≥9.0 |
| CC(C)[C@@H](N)C(=O)OCOn1nnc2ccc(C(=O)N[C@H](Cc3ccc(-c4cccc(Cl)c4)cc3)C[C@@H](O)C(=O)O)cc21 [Example 1L, (2R,4R)-4-{[3-((R)-2-Amino-3-methylbutyryloxymethoxy)-3H-benzotriazole-5-carbonyl]amino}-5-(3′-chlorobiphenyl-4-yl)-2-hydroxy-pentanoic Acid] | ≥9.0 |
| O=C(N[C@H](Cc1ccc(-c2cccc(Cl)c2)cc1)C[C@@H](O)C(=O)O)c1cc(-c2ccccc2F)no1 [Example 6A, (2R,4R)-5-(3′-Chlorobiphenyl-4-yl)-4-{[3-(2-fluorophenyl)isoxazole-5-carbonyl]amino}-2-hydroxypentanoic Acid] | ≥9.0 |

Same assay, conditions: recombinant human NEP; 30 minute pre-incubation at 37° C.; fluorogenic substrate 10 μM; read-out: pKi value at human NEP (converted)

| Compound | Ki |
| --- | --- |
| O=C(N[C@H](Cc1ccc(-c2cccc(Cl)c2)cc1)C[C@@H](O)C(=O)O)c1ccc2nnn(O)c2c1 [Example 1A, (2R,4R)-5-(3′-Chlorobiphenyl-4-yl)-2-hydroxy-4-[(3-hydroxy-3H-benzotriazole-5-carbonyl)amino]pentanoic Acid] | ≤ 1 nM |
| CCCC(=O)OCOn1nnc2ccc(C(=O)N[C@H](Cc3ccc(-c4cccc(Cl)c4)cc3)C[C@@H](O)C(=O)O)cc21 [Example 1M, (2R,4R)-4-[(3-Butyryloxymethoxy-3H-benzotriazole-5-carbonyl)amino]-5-(3′-chlorobiphenyl-4-yl)-2-hydroxypentanoic Acid] | 1.26 to 10 nM |
| Cn1nc(C(=O)N[C@H](Cc2ccc(-c3cccc(Cl)c3)cc2)C[C@@H](O)C(=O)O)cc1O [Example 2A, (2R,4R)-5-(3′-Chlorobiphenyl-4-yl)-2-hydroxy-4-[(5-hydroxy-1-methyl-1H-pyrazole-3-carbonyl)amino]pentanoic Acid] | ≤ 1 nM |
| O=C(N[C@H](Cc1ccc(-c2cccc(Cl)c2)cc1)C[C@@H](O)C(=O)O)c1cc(O)n(-c2ccccn2)n1 [Example 3A, (2R,4R)-5-(3′-Chlorobiphenyl-4-yl)-2-hydroxy-4-[(5-hydroxy-1-pyridin-2-yl-1H-pyrazole-3-carbonyl)amino]pentanoic Acid] | ≤ 1 nM |
| CC(=O)c1cc(C(=O)N[C@H](Cc2ccc(-c3cc(Cl)ccc3F)cc2)C[C@@H](O)C(=O)O)n[nH]1 [Example 4B, (2R,4R)-4-[(5-Acetyl-1H-pyrazole-3-carbonyl)amino]-5-(5′-chloro-2′-fluorobiphenyl-4-yl)-2-hydroxypentanoic Acid] | ≤ 1 nM |
| CC(=O)c1cc(C(=O)N[C@H](Cc2ccc(-c3cccc(Cl)c3)cc2)C[C@@H](O)C(=O)O)n[nH]1 [Example 5B, (2R,4R)-4-[(5-Acetyl-1H-pyrazole-3-carbonyl)amino]-5-(3′-chlorobiphenyl-4-l)-2-hydroxypentanoic Acid] | ≤ 1 nM |
| COc1cc(C(=O)N[C@H](Cc2ccc(-c3cccc(Cl)c3)cc2)C[C@@H](O)C(=O)O)on1 [Example 7A, (2R,4R)-5-(3′-Chlorobiphenyl-4-yl)-2-hydroxy-4-[(3-methoxyisoxazole-5-carbonyl)amino]pentanoic Acid] | ≤ 1 nM |
| O=C(N[C@H](Cc1ccc(-c2cc(Cl)ccc2F)cc1)C[C@@H](O)C(=O)O)c1cn(O)nn1 [Example 8A, (2R,4R)-5-(5′-Chloro-2′-fluorobiphenyl-4-yl)-2-hydroxy-4-[(1-hydroxy-1H-[1,2,3]triazole-4-carbonyl)amino]pentanoic Acid] | ≤ 1 nM |
| O=C(N[C@H](Cc1ccc(-c2cccc(Cl)c2)cc1)C[C@@H](O)C(=O)O)c1nn(-c2ccccc2)c(=O)[nH]1 [Example 9A, (2R,4R)-5-(3′-Chlorobiphenyl-4-yl)-2-hydroxy-4-[(5-oxo-1-phenyl-4,5-dihydro-1H-[1,2,4]triazole-3-carbonyl)amino]pentanoic Acid] | ≤ 1 nM |
| CC(=O)c1cc(C(=O)N[C@H](Cc2ccc(-c3ccccc3)cc2)C[C@@H](O)C(=O)O)[nH]n1 [formula X′, (2R,4R)-4-[(5-acetyl-2H-pyrazole-3-carbonyl)amino]-5-biphenyl-4-yl-2-hydroxypentanoic acid] | ≤ 1 nM |
